According to patent publication US11773157B2, “Compositions and methods for treating and preventing Staphylococcus aureus infections” (priority 2014, dated 2023):

System: MRSA (NR 46223)
Test: In vivo survival, MRSA bacteremia with vancomycin co-treatment
Parameters: species or system Balb/C mice
Conditions: 0.5 mg vancomycin i.p. alone (0 mg PA8-G3), two hours prior to infection; 3×10^7 CFU i.v.; PBS 10%
Description: Referring to FIGS. 8A-C, at day 14, only 10% of the PBS treated mice survived, 30% of the vancomycin treated mice survived. […] Statistical analysis of the animal data was conducted using Kaplan-Meier Survival Analysis with a Mantel-Cox (logrank) test.

## CN[C@H](CC(C)C)C(=O)N[C@H]1C(=O)N[C@@H](CC(N)=O)C(=O)N[C@H]2C(=O)N[C@H]3C(=O)N[C@H](C(=O)N[C@H](C(=O)O)c4cc(O)cc(O)c4-c4cc3ccc4O)[C@H](O)c3ccc(c(Cl)c3)Oc3cc2cc(c3O[C@@H]2O[C@H](CO)[C@@H](O)[C@H](O)[C@H]2O[C@H]2C[C@](C)(N)[C@H](O)[C@H](C)O2)Oc2ccc(cc2Cl)[C@H]1O [vancomycin, reference compound]
  mice survived at day 14: 30%
